Test results published in PubChem BioAssay (NCI).
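Cells were grown in 96-well plates and exposed to each compound for 48 hours at five concentrations; endpoints were interpolated linearly between bracketing concentrations, or set to the highest concentration if not reached. GI50 = concentration required for 50% inhibition of growth. TGI: concentration producing complete growth inhibition.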

What was measured:
Test in all cases: DTP human tumour cell line panel, 48 h
NCI-H522 lung = system: NCI-H522 lung
T-47D breast = system: T-47D breast
NCI-H226 lung = system: NCI-H226 lung
MCF7 breast = system: MCF7 breast
IGROV1 ovarian = system: IGROV1 ovarian
MOLT-4 leukemia = system: MOLT-4 leukemia
EKVX NSCLC = system: EKVX NSCLC
HCT-116 colon = system: HCT-116 colon
SNB-75 CNS = system: SNB-75 CNS
SF-268 CNS = system: SF-268 CNS

| Compound | GI50 (NCI-H522 lung) [µM] | TGI (NCI-H522 lung) [µM] | GI50 (T-47D breast) [µM] | TGI (T-47D breast) [µM] | GI50 (NCI-H226 lung) [µM] | TGI (NCI-H226 lung) [µM] | GI50 (MCF7 breast) [µM] | TGI (MCF7 breast) [µM] | GI50 (IGROV1 ovarian) [µM] | TGI (IGROV1 ovarian) [µM] | GI50 (MOLT-4 leukemia) [µM] | TGI (MOLT-4 leukemia) [µM] | GI50 (EKVX NSCLC) [µM] | TGI (EKVX NSCLC) [µM] | GI50 (HCT-116 colon) [µM] | TGI (HCT-116 colon) [µM] | GI50 (SNB-75 CNS) [µM] | GI50 (SF-268 CNS) [µM] | TGI (SF-268 CNS) [µM] | TGI (SNB-75 CNS) [µM] |
| --- | --- | --- | --- | --- | --- | --- | --- | --- | --- | --- | --- | --- | --- | --- | --- | --- | --- | --- | --- | --- |
| COc1cc(OC)c(/C=C/C(=O)c2c(N)cc(OC)cc2OC)c(OC)c1 | 0.234 | 0.901 | 0.478 | > 100 | 11.2 | > 100 | 0.395 | > 100 | 0.797 | > 100 | 1.02 | > 100 | 2.25 | > 100 | 0.384 | > 100 | 0.338 | 0.609 | > 100 | – |
| C=CC(C)(O)CCC1C(=C)C(O)CC2C(C)(C)CCCC12C (stereo not drawn) | – | 34.1 | – | 93.6 | – | 29.2 | – | 60 | – | 52.2 | – | 31.2 | – | 36.8 | – | 31.8 | – | – | 38 | > 100 |
| Cc1cc2c(cc1C)[n+](=O)c(C(=O)/C=C/c1ccccc1[N+](=O)[O-])c(C)n2[O-] | – | 57.6 | – | > 100 | – | > 100 | – | > 46.4 | – | > 100 | – | > 100 | – | 99.1 | – | > 100 | – | – | 74.9 | 41.1 |
| CC/C(=C(/c1ccc(/C=C/C(=O)O)cc1)c1ccc2[nH]ncc2c1)c1ccc(F)cc1Cl | 9.42 | 28.2 | 0.141 | 26.9 | 19.3 | 47.6 | – | 15.4 | 15.8 | 40 | 11.3 | 37.3 | 13.2 | 32.3 | 7.45 | 20.8 | 6.91 | 11.9 | 27.4 | 26.3 |
| COC(=O)C1=Nc2ccc(F)cc2/C1=C/c1sc(=S)[nH]c1O | 0.0363 | 1.09 | 4.41 | > 100 | 0.959 | 10.3 | 0.26 | 15 | 0.275 | 14.9 | 0.236 | > 100 | 0.987 | > 100 | 0.0468 | 16.7 | 0.0301 | 0.575 | 29.9 | 11.8 |
| CCc1ccc(C2=NN(c3ccc(S(C)(=O)=O)cc3)C(=O)CC2)cc1 | 0.339 | 8.37 | 4.44 | 98.1 | 14.6 | > 100 | 3.04 | > 91.6 | 2.71 | > 74.3 | 1.53 | 17.5 | 4.15 | 98.4 | 0.942 | > 39.2 | 1.31 | 3.11 | > 100 | 6.93 |
| Nc1c(C(=O)Nc2ccccn2)sc2nc3c(cc12)CCCCCC3 | 1.79 | > 50 | 2.09 | 34.6 | 3.15 | 18.5 | 0.179 | 10.2 | 1.95 | 13.9 | 0.392 | > 50 | 4.1 | 23.3 | 0.225 | 7.14 | 0.649 | 2.48 | 22.6 | 21.6 |
| O=c1c2ccccc2n2cnc3ccc(NCCNCCO)c1c32 | – | 6.2 | – | 22.2 | – | 6.5 | – | 9.62 | – | 9.59 | – | 10.3 | – | 8.49 | – | 8.29 | – | – | 8.01 | 9.51 |
| Cc1ccc(NC2=CC(=O)C(=O)c3ccccc32)c(C)c1 | 1.52 | 5.87 | 3.96 | 25.2 | 2.85 | 12.2 | 0.905 | 4.77 | 1.88 | 6.68 | 2.88 | 16.6 | 10.3 | 24.3 | 1.66 | 4.23 | 1.57 | 3.75 | 16.2 | 3.49 |
| CCN(CCNc1ccc(C)c2sc3cc(Cl)ccc3c(=O)c12)CC(C)(C)O | 3.82 | 20 | 11.8 | 37.5 | 14 | 30.7 | 11.7 | 26.9 | 2.68 | 19.1 | 15.5 | 73.7 | 3.41 | 21.6 | 4.94 | 18.2 | 3.31 | 16.5 | 69.4 | 16.8 |
| CC1=NN(c2nc(N)nc(/C=C\c3ccccc3)n2)C(C)(C)C1 | 3.14 | 13.5 | 2.5 | 15.1 | 13.7 | 28.6 | 8 | 25.5 | 8.99 | 24 | 13 | 40.7 | 12.5 | 45.8 | 2.76 | 14.2 | 6.36 | 6.1 | 24.4 | 25.6 |
